Source: article PMC7898037, “Improving mitochondria and ER stability helps eliminate upper motor neuron degeneration that occurs due to mSOD1 toxicity and TDP‐43 pathology” (Clinical and Translational Medicine, 2021)
Where “and” joins values, the source holds several entries; their conditions need not be identical. Identical values can stand only once.

How the values were obtained:
[1] = cited from earlier work
[2] = cited from earlier work; remark: listed apart in the source
WT‐UeGFP mice = assay: Rotarod test, WT‐UeGFP mice; format: in vivo; parameters: Rotarod, Mean Diff. (vehicle minus NU-9) / Rotarod, mean difference G vehicle vs. G NU-9 (20) / Rotarod, mean difference G vehicle vs. G NU-9 (100): unit not given here; conditions: for Rotarod, group mean (Mean 1 / Mean 2 of 2way ANOVA multiple comparisons): WT-UeGFP (G); for Rotarod, group mean (Mean 1 / Mean 2) / Rotarod, Mean Diff. (vehicle minus NU-9): WT-UeGFP mice; for Rotarod, Average / Rotarod, mean difference G vehicle vs. G NU-9 (20) / Rotarod, mean difference G vehicle vs. G NU-9 (100): WT-UeGFP; for Rotarod, mean difference G vehicle vs. G NU-9 (20): vehicle minus NU-9 20 mg/kg/day; for Rotarod, mean difference G vehicle vs. G NU-9 (100): vehicle minus NU-9 100 mg/kg/day
Description: hSOD1^G93A‐UeGFP, prpTDP‐43^A315T‐UeGFP and WT‐UeGFP mice were weighed and the required NU‐9 dose per weight was calculated (20 or 100 mg/kg), which was administered once daily by oral gavage, starting at postnatal day (P)60 and continuing until P120. Animals from the untreated group received the vehicle (NMP and olive oil) only. For oral administration purposes, 20 ga × 38 mm plastic feeding tubes were used (Instech Laboratories, Inc). The gavage tip was inserted into the mouth directly over the tongue and into the pharynx. While observing the swallowing reflex, the tip was safely and smoothly slid into the esophagus. Once the administration was completed, the gavage tip was pulled straight out.
Behavior data were collected from hSOD1^G93A‐UeGFP and WT‐UeGFP mice (starting at P60 and every 7 days until P116) and from prpTDP‐43^A315T‐UeGFP mice (at P60, P90, and P120) with the following number of mice for each group: WT‐UeGFP vehicle (n = 10), hSOD1^G93A‐UeGFP vehicle (n = 6), WT‐UeGFP 20 mg/kg/day NU‐9 (n = 5), hSOD1^G93A‐UeGFP 20 mg/kg/day NU‐9 (n = 7), WT‐UeGFP 100 mg/kg/day NU‐9 (n = 11), hSOD1^G93A‐UeGFP 100 mg/kg/day NU‐9 (n = 9), prpTDP‐43^A315T‐UeGFP untreated (n ≥ 3), and prpTDP‐43^A315T‐UeGFP 100 mg/kg/day NU‐9 (n = 4) (Table S3).
Mice were placed on a rotating rod that accelerates linearly from 4 to 40 rpm (Rotarod, Ugo Basile), and the average time spent on the rotating rod for three consecutive trials was calculated for each mouse. Mice were allowed to run for a maximum of 5 min with a 5 min rest period between each run, and the latency to fall was recorded for three consecutive trials. The average of the three trials was taken as the data point for each mouse at the age tested, and the performance of different groups are reported as the mean ± SEM.

Compound: C[C@H](Oc1cc(C(F)(F)F)cc(C(F)(F)F)c1)C1CC(=O)CC(=O)C1 [NU‐9]
- plasma stability t 1/2 [1]: > 2 h
- Brain penetration [2]: 8 µM and 8.3 µM
- blood brain barrier crossing [2]: crossed the blood brain barrier
- t 1/2 ([2]; in vivo, mice): 2.7 h and 2.73 h
- Blood levels (t max) ([2]; ip, mice, dose 500 mg/kg): 12 h (500 mg/kg)
- Oral bioavailability ([2]; mice): 94%
- CL (mouse) ([2]; mouse): 44 mL/min/kg
- AUC ([2]; po): 3452 h‐ng/ml po
- Rotarod, group mean (Mean 1 / Mean 2 of 2way ANOVA multiple comparisons) (WT‐UeGFP mice; NU-9 20 mg/kg/day, P102): 295.1
- Rotarod, group mean (Mean 1 / Mean 2 of 2way ANOVA multiple comparisons) (WT‐UeGFP mice; NU-9 20 mg/kg/day, P109): 291
- Rotarod, group mean (Mean 1 / Mean 2 of 2way ANOVA multiple comparisons) (WT‐UeGFP mice; NU-9 20 mg/kg/day, P116): 298.9
- Rotarod, group mean (Mean 1 / Mean 2 of 2way ANOVA multiple comparisons) (WT‐UeGFP mice; NU-9 100 mg/kg/day, P102): 251.4
- Rotarod, group mean (Mean 1 / Mean 2 of 2way ANOVA multiple comparisons) (WT‐UeGFP mice; NU-9 100 mg/kg/day, P109): 241.3
- Rotarod, group mean (Mean 1 / Mean 2 of 2way ANOVA multiple comparisons) (WT‐UeGFP mice; NU-9 100 mg/kg/day, P116): 221.3
- Rotarod, group mean (Mean 1 / Mean 2) (WT‐UeGFP mice; NU-9 20 mg/kg/day, P60): 260.7
- Rotarod, group mean (Mean 1 / Mean 2) (WT‐UeGFP mice; NU-9 20 mg/kg/day, P67): 279.2
- Rotarod, group mean (Mean 1 / Mean 2) (WT‐UeGFP mice; NU-9 20 mg/kg/day, P74): 295.3
- Rotarod, group mean (Mean 1 / Mean 2) (WT‐UeGFP mice; NU-9 20 mg/kg/day, P81): 286.1
- Rotarod, group mean (Mean 1 / Mean 2) (WT‐UeGFP mice; NU-9 20 mg/kg/day, P88): 285.5
- Rotarod, group mean (Mean 1 / Mean 2) (WT‐UeGFP mice; NU-9 20 mg/kg/day, P95): 279.3
- Rotarod, group mean (Mean 1 / Mean 2) (WT‐UeGFP mice; NU-9 100 mg/kg/day, P60): 250.1
- Rotarod, group mean (Mean 1 / Mean 2) (WT‐UeGFP mice; NU-9 100 mg/kg/day, P67): 261.4
- Rotarod, group mean (Mean 1 / Mean 2) (WT‐UeGFP mice; NU-9 100 mg/kg/day, P74): 261.2
- Rotarod, group mean (Mean 1 / Mean 2) (WT‐UeGFP mice; NU-9 100 mg/kg/day, P81): 258.5
- Rotarod, group mean (Mean 1 / Mean 2) (WT‐UeGFP mice; NU-9 100 mg/kg/day, P88): 256.5
- Rotarod, group mean (Mean 1 / Mean 2) (WT‐UeGFP mice; NU-9 100 mg/kg/day, P95): 262.2
- Rotarod, Mean Diff. (vehicle minus NU-9) (WT‐UeGFP mice; vehicle vs. NU-9 20 mg/kg/day, P60): 10.27
- Rotarod, Mean Diff. (vehicle minus NU-9) (WT‐UeGFP mice; vehicle vs. NU-9 20 mg/kg/day, P67): -0.9667
- Rotarod, Mean Diff. (vehicle minus NU-9) (WT‐UeGFP mice; vehicle vs. NU-9 20 mg/kg/day, P74): -13.73
- Rotarod, Mean Diff. (vehicle minus NU-9) (WT‐UeGFP mice; vehicle vs. NU-9 20 mg/kg/day, P81): -2.267
- Rotarod, Mean Diff. (vehicle minus NU-9) (WT‐UeGFP mice; vehicle vs. NU-9 20 mg/kg/day, P88): -1.533
- Rotarod, Mean Diff. (vehicle minus NU-9) (WT‐UeGFP mice; vehicle vs. NU-9 20 mg/kg/day, P95): 5.033
- Rotarod, Mean Diff. (vehicle minus NU-9) (WT‐UeGFP mice; vehicle vs. NU-9 20 mg/kg/day, P102): -24.77
- Rotarod, Mean Diff. (vehicle minus NU-9) (WT‐UeGFP mice; vehicle vs. NU-9 20 mg/kg/day, P109): -17.03
- Rotarod, Mean Diff. (vehicle minus NU-9) (WT‐UeGFP mice; vehicle vs. NU-9 20 mg/kg/day, P116): -40.09
- Rotarod, Mean Diff. (vehicle minus NU-9) (WT‐UeGFP mice; vehicle vs. NU-9 100 mg/kg/day, P60): 20.91
- Rotarod, Mean Diff. (vehicle minus NU-9) (WT‐UeGFP mice; vehicle vs. NU-9 100 mg/kg/day, P67): 16.81
- Rotarod, Mean Diff. (vehicle minus NU-9) (WT‐UeGFP mice; vehicle vs. NU-9 100 mg/kg/day, P74): 20.39
- Rotarod, Mean Diff. (vehicle minus NU-9) (WT‐UeGFP mice; vehicle vs. NU-9 100 mg/kg/day, P81): 25.41
- Rotarod, Mean Diff. (vehicle minus NU-9) (WT‐UeGFP mice; vehicle vs. NU-9 100 mg/kg/day, P88): 27.48
- Rotarod, Mean Diff. (vehicle minus NU-9) (WT‐UeGFP mice; vehicle vs. NU-9 100 mg/kg/day, P95): 22.09
- Rotarod, Mean Diff. (vehicle minus NU-9) (WT‐UeGFP mice; vehicle vs. NU-9 100 mg/kg/day, P102): 18.94
- Rotarod, Mean Diff. (vehicle minus NU-9) (WT‐UeGFP mice; vehicle vs. NU-9 100 mg/kg/day, P109): 32.69
- Rotarod, Mean Diff. (vehicle minus NU-9) (WT‐UeGFP mice; vehicle vs. NU-9 100 mg/kg/day, P116): 37.47
- Rotarod, Average (WT‐UeGFP mice; NU-9 20 mg/kg/day po, P60): 260.733 s
- Rotarod, Average (WT‐UeGFP mice; NU-9 20 mg/kg/day po, P67): 279.2 s
- Rotarod, Average (WT‐UeGFP mice; NU-9 20 mg/kg/day po, P74): 295.333 s
- Rotarod, Average (WT‐UeGFP mice; NU-9 20 mg/kg/day po, P81): 286.133 s
- Rotarod, Average (WT‐UeGFP mice; NU-9 20 mg/kg/day po, P88): 285.467 s
- Rotarod, Average (WT‐UeGFP mice; NU-9 20 mg/kg/day po, P95): 279.267 s
- Rotarod, Average (WT‐UeGFP mice; NU-9 20 mg/kg/day po, P102): 295.133 s
- Rotarod, Average (WT‐UeGFP mice; NU-9 20 mg/kg/day po, P109): 291 s
- Rotarod, Average (WT‐UeGFP mice; NU-9 20 mg/kg/day po, P116): 298.867 s
- Rotarod, Average (WT‐UeGFP mice; NU-9 100 mg/kg/day po, P60): 250.091 s
- Rotarod, Average (WT‐UeGFP mice; NU-9 100 mg/kg/day po, P67): 261.424 s
- Rotarod, Average (WT‐UeGFP mice; NU-9 100 mg/kg/day po, P74): 261.212 s
- Rotarod, Average (WT‐UeGFP mice; NU-9 100 mg/kg/day po, P81): 258.455 s
- Rotarod, Average (WT‐UeGFP mice; NU-9 100 mg/kg/day po, P88): 256.455 s
- Rotarod, Average (WT‐UeGFP mice; NU-9 100 mg/kg/day po, P95): 262.212 s
- Rotarod, Average (WT‐UeGFP mice; NU-9 100 mg/kg/day po, P102): 251.424 s
- Rotarod, Average (WT‐UeGFP mice; NU-9 100 mg/kg/day po, P109): 241.273 s
- Rotarod, Average (WT‐UeGFP mice; NU-9 100 mg/kg/day po, P116): 221.303 s
- Rotarod, mean difference G vehicle vs. G NU-9 (20) (WT‐UeGFP mice; P102): -24.77
- Rotarod, mean difference G vehicle vs. G NU-9 (20) (WT‐UeGFP mice; P109): -17.03
- Rotarod, mean difference G vehicle vs. G NU-9 (20) (WT‐UeGFP mice; P116): -40.09
- Rotarod, mean difference G vehicle vs. G NU-9 (100) (WT‐UeGFP mice; P102): 18.94
- Rotarod, mean difference G vehicle vs. G NU-9 (100) (WT‐UeGFP mice; P109): 32.69
- Rotarod, mean difference G vehicle vs. G NU-9 (100) (WT‐UeGFP mice; P116): 37.47
